Experiments:
[1] = test system: Gabrb3^ECKO endothelial cells; assay: qRT-PCR of periventricular endothelial cells after prenatal treatment; format: in vivo, mouse
Method: Primary culture of endothelial cells and endothelial cell staining: Embryonic brains were dissected under a stereo-microscope, after the NAD^+ treatment paradigm and the telencephalon was removed. Pial membranes were peeled off. Telencephalon without pial membranes from the periventricular region was pooled. Purity of endothelial cell cultures was established with endothelial cell markers and determined to be one hundred percent. Isolation and culture of endothelial cells were performed according to published methodology. Periventricular endothelial cells were prepared from CD1 (wild type), saline-treated Gabrb3^fl/fl, saline-treated Gabrb3^ECKO, and NAD^+-treated Gabrb3^ECKO embryos. Endothelial cells were labeled with anti-biotinylated isolectinB4 (1:100, Sigma), anti-GABA (1:400, Sigma), anti-DAXX (1:100, Santa Cruz Biotechnology) and anti-P2X4 (1:100, Abclonal) followed by secondary detection with AlexaFluor conjugates (Invitrogen). DAPI (Invitrogen) was used to label nuclei. Images were taken on an FSX100 microscope (Olympus). 1 million cells were examined for each immunohistochemistry condition.
Quantitative real-time PCR: RT was performed by using iScript Reverse Transcription Supermix kit (Bio-Rad). PCR reactions were run on a CFX96 Touch Real Time PCR (Bio-Rad) with SsoAdvanced™ Universal SYBR® Green Supermix (Bio-Rad). Primers for qPCR (Daxx, P2x4, P2x7, P2y13, Tek, vwf, F2r, Sirt2, Nos1, Nrp1, Pax6, Gad1, Gad2, Grin2a, Trpm2, Trpc4 and Trpv6) were obtained from Thermo Fisher Scientific. The housekeeping gene Gapdh was used as a reference. The relative gene expression and subsequent fold changes among different samples were determined according to published methodology.
To gain mechanistic insights into NAD^+ action on endothelial cells, periventricular endothelial cells were isolated from saline-treated Gabrb3^fl/fl, saline-treated Gabrb3^ECKO, and NAD^+-treated Gabrb3^ECKO groups at the end of the treatment paradigm. […] GABA is synthesized from glutamate by Gad genes. […] The qRT-PCR gene expression levels followed a similar trend with that of the levels in the microarray data, reinforcing that the whole-tissue microarray was capable of highlighting some endothelial cells specific gene changes (FIGS. 10A-10I). […] Taken together, our results implicate NAD^+ as a critical modulator of angiogenesis in the embryonic forebrain.

[2] = test system: GABAergic neurons isolated at E18 from Gabrb3^ECKO; assay: In vitro neuronal migration assay after in vivo NAD+ treatment paradigm; format: cell-based, mouse; conditions: neurons isolated at E18 after in vivo treatment E12-E17
Method: Isolation and primary culture of neuronal cells: Primary culture of embryonic GABAergic neurons from CD1 telencephalon or after the saline or NAD+ treatment paradigms were performed using established methods. Briefly, embryonic brains were extracted under a stereo microscope and placed into cold PBS. After removal of the pial membrane, the telencephalon was dissected from each embryonic brain. The telencephalon was minced into 1-2 mm slices in cold PBS. Minced telencephalon was treated with 0.1× trypsin/EDTA at 37° C. for 5 min. Trypsin treatment was stopped by adding FBS-DMEM media and DNase I consecutively. […]
Neuronal migration assay: In preparation for cell migration assays, one well square culture inserts (ibidi GmbH) were placed in the center of a poly-Ornithine/Laminin coated 35 mm dish, to make a small rectangular patch that is labeled outside the dish. […] Neuronal migration was assessed by measuring the distance between the final positions of cells from the border of the rectangular patch was outlined on the first day, using ImageJ software.
To test if the prenatal NAD^+ treatment was able to influence GABAergic neuronal migration, an in vitro neuronal migration assay was performed (FIG. 6M), after the in vivo NAD^+ treatment paradigm (E12-E17). […] Images of GFP^+ cells that had entered the dorsal telencephalon at E18 were collected and analyzed. […]

[3] = periventricular endothelial cells after prenatal treatment

NC(=O)c1ccc[n+]([C@@H]2O[C@H](COP(=O)([O-])OP(=O)(O)OC[C@H]3O[C@@H](n4cnc5c(N)ncnc54)[C@H](O)[C@@H]3O)[C@@H](O)[C@H]2O)c1 [NAD^+]
P2X7 and P2Y13 mRNA expression ([1]; after NAD^+ treatment): rescue of P2X7 and P2Y13 mRNA expression
Gad1 and Gad2 expression by qRT-PCR [1, 3]: concurrently rescued
calcium signaling genes (Grin2a, Trpm2, Trpc4, Trpv6) by qRT-PCR [1, 3]: rescue of several calcium signaling genes
expression of angiogenesis regulators (Tek, vWF, F2r, Sirt2, Nos1, Pax6) by qRT-PCR [1, 3]: restored the expression of several critical regulators of angiogenesis
migration of β-Tubulin^+ neurons (cell number and distance) [2]: migrated robustly

From US20220096515A1, “Methods and Formulations for Preventing Neurological or Psychiatric Disorders” (Huntington Medical Research Institutes, priority 2020, published 2022)
